# Data as given in US20050020565A1, “CCK-1 receptor modulators” (priority 2003, published 2005).
# Molecular target: T1, CCK-1 receptor (Homo sapiens, UniProt P32238)
# T1 construct: expressed in transfected cells; membranes
# T1 sequence (P32238 1-428): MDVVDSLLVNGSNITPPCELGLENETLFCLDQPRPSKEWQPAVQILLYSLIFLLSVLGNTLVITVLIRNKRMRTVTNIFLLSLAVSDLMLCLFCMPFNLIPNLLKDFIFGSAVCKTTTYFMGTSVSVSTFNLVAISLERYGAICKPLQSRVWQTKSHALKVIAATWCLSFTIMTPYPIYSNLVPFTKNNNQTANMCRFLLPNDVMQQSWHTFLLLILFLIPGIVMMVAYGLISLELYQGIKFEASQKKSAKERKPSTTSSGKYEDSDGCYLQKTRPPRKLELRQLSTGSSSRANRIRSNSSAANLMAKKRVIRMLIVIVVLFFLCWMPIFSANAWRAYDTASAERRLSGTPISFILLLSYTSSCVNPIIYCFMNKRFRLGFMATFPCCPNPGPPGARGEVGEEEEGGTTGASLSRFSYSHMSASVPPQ
# Assay: CCK-1 receptor radioligand binding assay ([125I]-BH-CCK-8S displacement, membranes of stably transfected CHO-K1 cells)
# Details: membranes of CHO-K1 cells stably transfected with CCK-1 receptor, 0.3 μM PD-134,308 present
# Description: CHO-K1 cells that had undergone-stable transfection with the CCK-1 receptor were grown in DMEM supplemented with L-glutamine (2 mM), penicillin (50 units/mL) and streptomycin (50 μg/mL). Cells were cultured under continuous G418 selection (2 mM) and were harvested using a rubber cell scraper. CHO-K1 cells were sub-cultured a maximum of ten times before being reseeded from the original stocks.
# Membranes were prepared from the stably transfected CHO-K1 cells. Frozen cell pellets (−40° C.) were thawed in 14 mL of buffer A (10 mM HEPES, 130 mM NaCl, 4.7 mM KCl, 5 mM MgCl, 1 mM EGTA and 15.4 mg/100 mL bacitracin at pH 7.2), adapted from Harper et al. (Br. J. Pharmacol. (1996) 118, pp 1717-1726). The thawed pellets were homogenized using a Polytron PT-10 (7×1 s). The homogenates were centrifuged for 5 min at 1500 rpm (600×g), and the resulting pellets were discarded. The supernatants were re-centrifuged in order to collect the receptor-membrane pellets (25 min 15,000 rpm; 39,800×g), which were re-suspended in buffer A.
# All assays were conducted in 96-well plates (GF/B millipore filter plates) using buffer A, with 0.3 μM PD-134,308, for the dilutions. The CCK-2 receptor ligand was included to eliminate the contribution of this receptor subtype to the binding. For the optimal cell number determination experiments 20 pM [1251]-BH—CCK-8S (50 μL 60 pM solution) was incubated with a range of cell concentrations (2.5×105 to 12.5×10^5 cells/well) in a total volume of 150 μL. Total binding of [1251]-BH—CCK-8S was determined in the presence of 15 μL of buffer A. Non-specific binding of [1 251]-BH—CCK-8S was determined in the presence of 15 μL of 100 μM 2-naphthalenesulphonyl L-aspartyl-(2-phenethyl)amide (2-NAP: see R. A. Hull et al., Br. J. Pharmacol. (1993) 108, pp 734-740), a CCK-1 receptor selective antagonist that is structurally unrelated to the radioligand [1251]-BH—CCK-8S. The assay preparation was incubated for 1 h at 21±3° C., and then the assay was terminated upon rapid filtration of the preparation under reduced pressure. The loaded filters were washed three times using undiluted PBS (100 μL), and then the residues were transferred to 5 mL scintillation tubes. Bound radioactivity was determined using a gamma counter (count time=1 min). From these experiments a cell concentration of 1 pellet in 40 mL of buffer (2.5×10^6 cells/mL) was chosen for use in other assays (below). To validate the radioligand concentration and incubation time for the assay, saturation and kinetic binding studies were also conducted (see M. F. Morton, The Pharmacological Characterization of Cholecystokinin Receptors in the Human Gastrointestinal Tract. PhD Thesis, University of London, 2000). The affinity of novel compounds was estimated by incubating membrane preparations with 15 μL of competing ligand (0.1 pM-1 mM) for 60 min at 21±3° C. The assay was then terminated according to the procedure outlined above.
# The pKi values were determined using the equation of Cheng and Prusoff (Biochem. Pharmacol. (1973) 22, pp 3099-3108): [formula]
# To circumvent problems associated with computer-assisted data analysis of compounds with low affinity, the data obtained in the current study were weighted according to a method described by Morton (2000). In brief, 100% and 0% specific binding were defined independently using total binding and binding obtained in the presence of a high concentration of the reference antagonist, 2-NAP.
row,SMILES,Ki [nM]
1,COc1ccc(-n2nc(/C=C(\C(=O)O)c3ccc(Cl)c(Cl)c3)cc2-c2ccc(Cl)c(Cl)c2)cc1 [Example 118],5.01
2,Cc1ccc(-c2cc(CC(C(=O)O)c3ccccc3Cl)nn2Cc2ccccc2)cc1 (stereo not shown) [Example 43],100
3,Cc1ccc(-n2nc(CC(C(=O)O)c3cccc(C)c3)cc2-c2ccc3c(c2)CCN3C)cc1 (stereo not shown) [Example 87],25.1
4,Cc1cccc(C(Cc2cc(-c3ccc4c(c3)OCO4)n(-c3ccc(Cl)cc3Cl)n2)C(=O)O)c1 (stereo not shown) [Example 276],6.31
5,COc1ccc(-n2nc(CC(C(=O)O)c3cccc4sccc34)cc2-c2ccc(C)cc2)cc1 (stereo not shown) [Example 153],15.8
6,Cc1ccc(-n2nc(CC(C(=O)O)c3cccc(C)c3)cc2-c2ccc(Br)cc2)cc1 (stereo not shown) [Example 77],15.8
7,Cc1ccc(-c2cc(CC(C(=O)O)c3cccc(C(F)(F)F)c3F)nn2-c2ccc(Cl)c(Cl)c2)cc1 (stereo not shown) [Example 21],158
8,Cc1ccc(-c2cc(CC(C(=O)O)c3cccc4sccc34)nn2-c2ccc(Cl)c(Cl)c2)cc1 (stereo not shown) [Example 190],10
9,Cc1ccc(-n2nc(-c3cccc(N(C)C)c3)cc2CC(C(=O)O)c2cccc(C)c2)cc1 (stereo not shown) [Example 90],794
10,Cc1cccc(C(Cc2cc(-c3ccc4ccccc4c3)nn2C2CCCCC2)C(=O)O)c1 (stereo not shown) [Example 50],100
11,Cc1ccc(-c2cc(CC(C(=O)O)c3cccc(C)c3)nn2-c2ccc(Cl)cc2)cc1 (stereo not shown) [Example 155],10
12,COc1ccc(-n2nc(CC(c3cccc(C)c3)c3nnn[nH]3)cc2-c2ccc(C)cc2)cc1 (stereo not shown) [Example 74],6.31
13,Cc1ccc(-n2nc(CC(C(=O)O)c3cccc(C)c3)cc2-c2ccc(N(C)C)cc2)cc1 (stereo not shown) [Example 59],3.16
14,COc1ccc(-n2nc(C[C@@H](C(=O)O)c3cccc4ccccc34)cc2-c2ccc(C)cc2)cc1 [Example 151],200
15,Cc1ccc(-c2cc(CC(C(=O)O)c3cccc(Cl)c3)nn2-c2ccc(Cl)c(Cl)c2)cc1 (stereo not shown) [Example 182],12.6
16,Cc1ccc(-c2cc(CC(CS(=O)(=O)c3ncn[nH]3)c3cccc(C)c3)nn2-c2ccc(C)cc2)cc1 (stereo not shown) [Example 137],10
17,COc1ccc(-n2nc(CC(C(=O)N3CCN(C)CC3)c3cccc(C)c3)cc2-c2ccc(C)cc2)cc1 (stereo not shown) [Example 68],251
18,Cc1ccc(-n2nc(CC(C(=O)O)c3cccc(C)c3)cc2-c2cccc(N(C)C)c2)cc1 (stereo not shown) [Example 91],12.6
19,Cc1ccc(-n2nc(CC(C(=O)O)c3cccc(C)c3)cc2-c2ccc(N3CCCC3)cc2)cc1 (stereo not shown) [Example 352],31.6
20,COc1ccc(-n2nc(CC(C(=O)O)c3cccc4ccccc34)cc2-c2ccc(Cl)c(Cl)c2)cc1 (stereo not shown) [Example 210],12.6
21,Cc1ccc(-n2nc(CC(C(=O)O)c3cccc(C)c3)cc2-c2ccc3ccccc3c2)cc1 (stereo not shown) [Example 271],15.8
22,Cc1cccc(C(Cc2cc(-c3ccc4ccccc4c3)n(C3CCCCC3)n2)C(=O)O)c1 (stereo not shown) [Example 51],5.01
23,COc1ccc(-n2nc(/C=C(\C(=O)O)c3cccc(Cl)c3)cc2-c2ccc(Cl)c(Cl)c2)cc1 [Example 115],6.31
24,O=C(O)/C(=C\c1cc(-c2ccc(Cl)c(Cl)c2)n(-c2ccccn2)n1)c1cccc(Cl)c1 [Example 110],12.6
25,COc1ccc(-n2nc(/C=C(\C(=O)O)c3cccc(C)c3)cc2-c2ccc(Cl)c(Cl)c2)cc1 [Example 120],10
26,COc1ccc(-n2nc(/C=C(/C(=O)O)c3ccc(Cl)c(Cl)c3)cc2-c2ccc(Cl)c(Cl)c2)cc1 [Example 124],39.8

row,SMILES,Ki [nM]
1,Cc1ccc(-c2cc(CC(C(=O)O)c3cccc(Cl)c3Cl)nn2-c2ccc(Cl)c(Cl)c2)cc1 (stereo not shown) [Example 46],20
2,Cc1cccc(C(Cc2cc(-c3ccc(Cl)c(Cl)c3)n(-c3ccc(C(C)(C)C)cc3)n2)C(=O)O)c1 (stereo not shown) [Example 275],20
3,Cc1ccc(-n2nc(CC(C(=O)O)c3cccc(C)c3)cc2-c2ccc3ncccc3c2)cc1 (stereo not shown) [Example 106],63.1
4,Cc1cccc(C(Cc2cc(-c3ccc4c(c3)OCO4)n(Cc3ccccc3)n2)C(=O)O)c1 (stereo not shown) [Example 322],39.8
5,COc1cccc2cc(-c3cc(CC(C(=O)O)c4cccc(C)c4)nn3-c3ccc(C)cc3)oc12 (stereo not shown) [Example 311],20
6,COc1ccc(-n2nc(C[C@@H](C(=O)O)c3cccc4ccccc34)cc2-c2ccc3c(c2)OCO3)cc1 [Example 28],1260
7,Cc1ccc(-c2cc(CC(C(=O)O)c3cccc(SC(F)(F)F)c3)nn2-c2ccc(Cl)c(Cl)c2)cc1 (stereo not shown) [Example 26],79.4
8,COc1ccc(-n2nc(CC(C(=O)O)c3cn(C)c4ccccc34)cc2-c2ccc(C)cc2)cc1 (stereo not shown) [Example 72],50.1
9,COc1ccc(-n2nc(C[C@H](CS(=O)(=O)c3ncn[nH]3)c3cccc(C)c3)cc2-c2ccc(Cl)c(Cl)c2)cc1 [Example 138],31.6
10,COc1ccc(-n2nc(CC(C(=O)O)c3ccccc3C(F)(F)F)cc2-c2ccc(Cl)c(Cl)c2)cc1 (stereo not shown) [Example 19],31.6
11,COc1ccc(-n2nc(CC(C(=O)O)c3cccc(OC)c3)cc2-c2ccc(Cl)c(Cl)c2)cc1 (stereo not shown) [Example 211],12.6
12,COc1ccc(-c2cc(C[C@H](C(=O)O)c3cccc(OC)c3)nn2-c2ccc(OC)cc2)cc1 [Example 32],63.1
13,COc1cccc(C(Cc2cc(-c3ccc(C)cc3)n(-c3ccc(Cl)c(Cl)c3)n2)C(=O)O)c1 (stereo not shown) [Example 42],6.31
14,Cc1cccc(C(Cc2cc(-c3ccc4ccccc4c3)n(-c3ccc(C(F)(F)F)cn3)n2)C(=O)O)c1 (stereo not shown) [Example 80],12.6
15,Cc1ccc(-n2nc(CC(C(=O)O)c3cccc(C)c3)cc2-c2ccc(N(C)C(C)C)cc2)cc1 (stereo not shown) [Example 101],15.8
16,COc1ccc(-n2nc(CC(C(N)=O)c3cccc(C)c3)cc2-c2ccc(C)cc2)cc1 (stereo not shown) [Example 65],2000
17,Clc1cccc(C(Cc2cc(-c3ccc4c(c3)OCO4)n(-c3cc(Cl)ccc3Cl)n2)c2nnn[nH]2)c1 (stereo not shown) [Example 132],10
18,Cc1cccc(C(Cc2cc(-c3ccc(Cl)c(Cl)c3)nn2C)C(=O)O)c1 (stereo not shown) [Example 48],79.4
19,COc1cccc(C(Cc2cc(-c3ccc(C)cc3)n(-c3ccc(C(F)(F)F)cc3)n2)C(=O)O)c1 (stereo not shown) [Example 177],12.6
20,CCOc1ccc(-n2nc(/C=C(\C(=O)O)c3cccc(Cl)c3)cc2-c2ccc3c(c2)OCO3)cc1 [Example 121],7.94
21,COc1ccc(-n2nc(CC(C(=O)NC3CCCCC3O)c3cccc(C)c3)cc2-c2ccc(C)cc2)cc1 (stereo not shown) [Example 64],50.1
22,COc1ccc(-n2nc(CC(C(=O)O)c3cccc(Cl)c3)cc2-c2ccc(Oc3ccccc3)cc2)cc1 (stereo not shown) [Example 246],39.8
23,Cc1cccc(C(Cc2cc(-c3ccc(Oc4ccccc4)cc3)[nH]n2)C(=O)O)c1 (stereo not shown) [Example 305],2000
24,Cc1cccc(C(Cc2cc(-c3ccc(Br)c(C)c3)n(C3CCCCC3)n2)C(=O)O)c1 (stereo not shown) [Example 308],63.1
25,COc1ccc(-n2nc(C[C@H](C(=O)O)c3cccc4ccccc34)cc2-c2ccc(C)cc2)cc1 [Example 152],12.6
26,Cc1ccc(-n2nc(CC(C(=O)O)c3cccc(C)c3)cc2-c2ccc(N3CCCCC3)cc2)cc1 (stereo not shown) [Example 349],79.4
